Molecules are shown by their SMILES. Read-outs that look alike come from different tables or passages of the source.

Data set [1] relates to C. albicans mature biofilms. The data set can be described thus: Established (mature, 24-h) biofilm susceptibility (XTT reduction, LIVE/DEAD confocal microscopy). The protocol: LIVE/DEAD staining of the biofilm was performed and dead cells were quantified in confocal micrographs.
(§1) Candida albicans was subcultured onto Sabouraud dextrose agar (per liter: peptone 10 g, dextrose 40 g, agar 15 g; pH of 5.6) and incubated at 30° C. for 24 h. One colony was then added to yeast extract-peptone-dextrose (YPD; 1% yeast extract, 2% peptone, 2% dextrose) and incubated with shaking at 30° C. and 170 rpm for 16 h, after which cells were harvested, washed in phosphate-buffered saline (PBS), and diluted to a standard inoculum of 1.0×10^6 cells per ml.
For biofilm assays in microtiter plates, 100 μl of a standard inoculum of C. albicans cells (1.0×10^6 cells per ml) was added to the wells of a 96-well plate in triplicate, and the cells were allowed to adhere for 90 min at 37° C. After incubation, the plates were washed twice with PBS to remove nonattached cells. Then 100 μl of RPMI 1640 with L-glutamine, without sodium bicarbonate (GIBCO®), buffered to pH 7.0 with 165 mM morpholinepropanesulfonic acid (MOPS) was added to each well, and the plates were incubated at 37° C. for 24 h. Early-stage biofilms were prepared essentially as above, with the exception that the cells were induced to form biofilms for either 3 or 6 h prior to treatment.
Fluconazole was obtained from Sigma. All drugs were dissolved in dimethyl sulfoxide (DMSO).
Menadione and XTT [2,3-bis-(2-methoxy-4-nitro-5-sulfophenyl)-2H-tetrazolium-5-carboxyanilide] were obtained from Sigma-Aldrich. After a drug challenge, the wells were washed twice with PBS, and then 100 μl of XTT-menadione solution was added to the wells, and plates incubated in the dark for 1 h at 37° C. The absorbance of wells at 490 nm was read using a microplate reader (Biotec/Synergy software).
Candida albicans biofilms were treated with or without test compounds for various times, depending on the experimental design, after which the cells were prepared for microscopy by staining with the BacLight yeast viability kit, the contents of which include Syto-9 and propidium iodide (Molecular Probes, Eugene, Oreg.) according to the manufacturer's instructions. Confocal images were obtained using an Olympus FluoView10i microscope and a filter set for Syto-9 and propidium iodide. Overlays included phase contrast images. All confocal images were processed using ImageJ.
Biofilm viability was assayed by XTT reduction and calculated as follows:
[formula] where background wells contained XTT solution only; untreated wells received cells only, with no added drug.

Data set [2] concerns C. albicans DAY185 planktonic cells. The data set can be described thus: Planktonic cell growth and viability. It is filed as cell-based, Candida albicans. The conditions noted are these: 0.06 μg per ml. As to the method: Small arrows (FIG. 1B and FIG. 1C) denote chains of yeast cells. Note the microcolonies apparent in the control culture at 3 hours (FIG. 2B) and 9 hours (FIG. 2C) denoted by the large arrows. […] Under these conditions, some yeast cells formed short linear chains, but there were few germ tubes, and the culture never developed true hyphae. […] When germ tubes were allowed to emerge before treatment with xanthochymol, the germ tubes elongated and branched for several hours. In contrast, when C. albicans DAY185 planktonic cells were grown in YPD in the presence or absence of either Garcinia benzophenone (70 μg per ml), there was no significant effect on the growth or viability.

Data set [3] deals with C. albicans early biofilms. It is filed as cell-based, Candida albicans. The conditions noted are these: fluconazole at 32 μg per ml, FIG. 3. The protocol: as §1
For biofilm assays in microtiter plates, 100 μl of a standard inoculum of C. albicans cells (1.0×10^6 cells per ml) was added to the wells of a 96-well plate in triplicate, and the cells were allowed to adhere for 90 min at 37° C. After incubation, the plates were washed twice with PBS to remove nonattached cells. Then 100 μl of RPMI 1640 with L-glutamine, without sodium bicarbonate (GIBCO®), buffered to pH 7.0 with 165 mM morpholinepropanesulfonic acid (MOPS) was added to each well, and the plates were incubated at 37° C. for 24 h. […]
Menadione and XTT [2,3-bis-(2-methoxy-4-nitro-5-sulfophenyl)-2H-tetrazolium-5-carboxyanilide] were obtained from Sigma-Aldrich. […] The absorbance of wells at 490 nm was read using a microplate reader (Biotec/Synergy software). […]
Biofilm viability was assayed by XTT reduction and calculated as follows: […]

In data set [4] the target is histone acetyltransferase (HAT) p300 (Homo sapiens, UniProt Q09472). The settings on record: cited from earlier work.
Chain of histone acetyltransferase (HAT) p300 (Q09472 whole entry): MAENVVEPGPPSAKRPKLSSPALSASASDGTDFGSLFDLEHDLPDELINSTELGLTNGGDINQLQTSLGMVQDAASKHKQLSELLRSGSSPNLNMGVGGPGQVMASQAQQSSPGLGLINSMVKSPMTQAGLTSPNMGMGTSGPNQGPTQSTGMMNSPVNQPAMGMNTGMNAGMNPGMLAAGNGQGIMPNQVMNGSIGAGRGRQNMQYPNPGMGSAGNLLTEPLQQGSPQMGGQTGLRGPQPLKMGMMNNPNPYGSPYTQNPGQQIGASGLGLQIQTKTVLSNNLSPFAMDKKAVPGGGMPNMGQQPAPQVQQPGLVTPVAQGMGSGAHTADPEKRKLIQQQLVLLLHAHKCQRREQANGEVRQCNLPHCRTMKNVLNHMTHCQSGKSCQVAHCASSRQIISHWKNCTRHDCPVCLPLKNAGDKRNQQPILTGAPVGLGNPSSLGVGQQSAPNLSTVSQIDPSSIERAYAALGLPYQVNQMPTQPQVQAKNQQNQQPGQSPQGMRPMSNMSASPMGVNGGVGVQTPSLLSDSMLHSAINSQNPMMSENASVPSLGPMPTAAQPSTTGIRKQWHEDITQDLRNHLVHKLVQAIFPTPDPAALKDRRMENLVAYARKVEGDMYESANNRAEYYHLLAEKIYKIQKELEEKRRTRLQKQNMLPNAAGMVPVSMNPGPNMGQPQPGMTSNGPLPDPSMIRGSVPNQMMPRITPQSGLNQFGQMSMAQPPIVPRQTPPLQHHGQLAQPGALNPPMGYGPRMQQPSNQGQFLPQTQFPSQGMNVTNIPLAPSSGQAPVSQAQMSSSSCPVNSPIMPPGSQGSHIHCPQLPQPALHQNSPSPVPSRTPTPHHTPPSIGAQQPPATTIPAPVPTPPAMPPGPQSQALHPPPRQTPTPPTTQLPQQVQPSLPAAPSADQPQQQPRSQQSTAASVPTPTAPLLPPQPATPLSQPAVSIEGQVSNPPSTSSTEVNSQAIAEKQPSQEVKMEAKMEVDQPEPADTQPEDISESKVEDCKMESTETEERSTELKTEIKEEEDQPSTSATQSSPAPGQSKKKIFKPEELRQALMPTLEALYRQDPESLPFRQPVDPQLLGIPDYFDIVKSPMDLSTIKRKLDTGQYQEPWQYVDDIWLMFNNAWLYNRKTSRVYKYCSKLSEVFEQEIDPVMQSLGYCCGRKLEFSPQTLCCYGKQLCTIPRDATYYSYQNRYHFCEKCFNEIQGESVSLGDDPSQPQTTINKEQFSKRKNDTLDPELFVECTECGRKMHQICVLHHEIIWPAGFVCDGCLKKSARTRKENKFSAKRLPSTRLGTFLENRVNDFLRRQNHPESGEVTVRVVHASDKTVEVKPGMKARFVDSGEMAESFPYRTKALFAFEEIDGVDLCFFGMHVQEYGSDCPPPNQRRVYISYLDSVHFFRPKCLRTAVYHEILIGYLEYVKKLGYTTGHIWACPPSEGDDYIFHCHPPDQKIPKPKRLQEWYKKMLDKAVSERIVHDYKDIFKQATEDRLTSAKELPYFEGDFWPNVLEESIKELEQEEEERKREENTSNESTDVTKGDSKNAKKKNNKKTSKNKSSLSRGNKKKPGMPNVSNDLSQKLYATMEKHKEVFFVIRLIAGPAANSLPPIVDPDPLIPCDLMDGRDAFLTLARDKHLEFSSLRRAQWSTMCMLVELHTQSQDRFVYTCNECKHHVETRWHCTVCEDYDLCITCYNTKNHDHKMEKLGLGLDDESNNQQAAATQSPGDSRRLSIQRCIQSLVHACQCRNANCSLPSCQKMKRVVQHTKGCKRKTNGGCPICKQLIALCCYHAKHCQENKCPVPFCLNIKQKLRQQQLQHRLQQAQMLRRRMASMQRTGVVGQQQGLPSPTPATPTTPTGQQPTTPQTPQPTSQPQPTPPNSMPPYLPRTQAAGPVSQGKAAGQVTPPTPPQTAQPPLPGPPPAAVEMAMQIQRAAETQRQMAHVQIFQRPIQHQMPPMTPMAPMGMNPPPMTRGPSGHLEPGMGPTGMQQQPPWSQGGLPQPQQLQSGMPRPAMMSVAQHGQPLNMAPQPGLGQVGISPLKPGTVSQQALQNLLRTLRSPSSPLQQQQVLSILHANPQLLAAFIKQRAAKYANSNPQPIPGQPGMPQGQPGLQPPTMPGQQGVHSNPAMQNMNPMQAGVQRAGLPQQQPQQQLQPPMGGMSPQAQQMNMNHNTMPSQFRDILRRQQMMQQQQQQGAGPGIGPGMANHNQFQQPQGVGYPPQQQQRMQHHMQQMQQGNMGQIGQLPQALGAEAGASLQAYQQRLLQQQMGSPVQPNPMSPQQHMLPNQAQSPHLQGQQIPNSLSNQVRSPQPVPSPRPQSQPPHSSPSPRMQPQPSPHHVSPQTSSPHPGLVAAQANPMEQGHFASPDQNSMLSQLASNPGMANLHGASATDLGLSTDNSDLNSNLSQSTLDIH
For the next data set, the target named is pCAF (Homo sapiens, UniProt Q92831). The conditions noted are these: cited from earlier work.
Chain of pCAF (Q92831 whole entry, species assumed): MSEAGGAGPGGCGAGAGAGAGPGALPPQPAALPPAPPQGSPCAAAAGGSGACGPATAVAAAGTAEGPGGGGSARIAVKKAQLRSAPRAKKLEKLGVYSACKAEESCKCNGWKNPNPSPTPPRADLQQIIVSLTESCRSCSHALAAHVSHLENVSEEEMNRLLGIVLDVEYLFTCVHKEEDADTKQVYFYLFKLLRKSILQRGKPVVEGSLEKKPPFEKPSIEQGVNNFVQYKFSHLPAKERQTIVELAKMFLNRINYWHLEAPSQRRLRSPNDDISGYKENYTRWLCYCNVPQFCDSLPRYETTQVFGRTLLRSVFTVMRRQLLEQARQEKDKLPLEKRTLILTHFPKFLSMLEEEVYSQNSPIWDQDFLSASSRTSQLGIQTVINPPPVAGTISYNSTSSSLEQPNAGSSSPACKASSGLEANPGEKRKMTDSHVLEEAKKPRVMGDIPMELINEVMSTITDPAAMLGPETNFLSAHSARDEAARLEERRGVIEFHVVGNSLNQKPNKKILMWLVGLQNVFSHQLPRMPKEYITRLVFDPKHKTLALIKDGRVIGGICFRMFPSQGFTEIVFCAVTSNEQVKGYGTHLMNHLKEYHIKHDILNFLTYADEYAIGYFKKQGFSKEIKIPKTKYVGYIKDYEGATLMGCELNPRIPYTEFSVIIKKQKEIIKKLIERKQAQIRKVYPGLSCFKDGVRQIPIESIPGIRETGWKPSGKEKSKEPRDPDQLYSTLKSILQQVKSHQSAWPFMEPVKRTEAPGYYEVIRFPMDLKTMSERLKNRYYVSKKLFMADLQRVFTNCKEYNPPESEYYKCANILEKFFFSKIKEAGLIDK

On to `CC[C@H](C)C[C@H](C)CCCCCCCCC(=O)N[C@H]1C[C@@H](O)[C@@H](NCCN)NC(=O)[C@@H]2[C@@H](O)CCN2C(=O)[C@H]([C@H](O)CCN)NC(=O)[C@H]([C@H](O)[C@@H](O)c2ccc(O)cc2)NC(=O)[C@@H]2C[C@@H](O)CN2C(=O)[C@H]([C@@H](C)O)NC1=O` [caspofungin], for which, in data set [1] (0.06 μg per ml), the “killing of biofilm (positive control)” value is “less effective against a biofilm”. Besides, in data set [2], the “killing of planktonic yeast phase cells” value was “showed killing”.

As a reminder, the IC50 is the concentration that gives 50% inhibition. As a reminder, the EC50 is the midpoint of the concentration-response curve. Take `OC(Cn1cncn1)(Cn1cncn1)c1ccc(F)cc1F` [fluconazole]: the “killing of biofilm cells by microscopy” value in data set [1] (24-h biofilms, 24 h of exposure, confocal LIVE/DEAD) is “minimal effect”. For the same compound, the reduction in viability in data set [1] (24-h biofilms, fluconazole as high as 1,024 μg per ml, XTT assay) was found to be 15%. For the same compound, the IC50 in data set [1] (Candida albicans, 24 h, read-out: fluconazole IC50) came to 13 µg/mL. For the same compound, the EC50 in data set [1] (Candida albicans, read-out: fluconazole EC50, mature biofilms, fluconazole alone) was more than 1020 µg/mL; in data set [1] (Candida albicans, read-out: fluconazole EC50, mature biofilms, with xanthochymol) it was 13 µg/mL. Also, the “reduction of biofilm activity” value in data set [3] was found to be 20%.

Regarding `C=C(C)CC[C@@H](C[C@@]12C[C@@H](CC=C(C)C)C(C)(C)[C@@](CC=C(C)C)(C(=O)C(C(=O)c3ccc(O)c(O)c3)=C1O)C2=O)C(=C)C` [garcinol], the “inhibition of HAT p300” value in data set [4] is reported as “micromolar concentrations”. The “inhibition of pCAF” value on pCAF is on record as “micromolar concentrations”.

The values are drawn from patent US9648876B2, “Method of inhibiting biofilm formation” (Research Foundation of the City University of New York, priority 2015, dated 2017).
